# Values of other authors in patent US20190269662A1, “SOLID COMPOSITIONS OF ACTIVES, PROCESSES FOR PREPARING SAME AND USES OF SUCH SOLID COMPOSITIONS” (The University of Liverpool, priority 2018, published 2019).
# Settings: background statement; cited from earlier work
smiles,measurement,value
Cc1nnc(C(C)C)n1[C@@H]1C[C@H]2CC[C@@H](C1)N2CC[C@H](NC(=O)C1CCC(F)(F)CC1)c1ccccc1 [maraviroc],oral bioavailability,approximately 33%
